Source: patent publication US10780067B2, “Endoxifen for local transdermal therapy to the breast” (Northwestern University, priority 2016, dated 2020)
Where “and” joins values, the source holds several entries; their conditions need not be identical. Identical values can stand only once.

Assays:
Format in all cases: in vivo, human
[1] = Plasma, breast adipose tissue and NAF concentrations of tamoxifen and its metabolites (LC-MS/MS), presurgical trial
Description: (§1) All participants provided informed consent. Baseline assessments included a history and physical, explanation of gel application, completion of the Breast Cancer Prevention Trial Eight Symptom Scale (BESS) questionnaire, collection of a venous blood sample, and collection of nipple aspirate fluid (NAF) from NAF yielders. […] Treatment began within 5 days post-randomization and ended on the day prior to surgical resection. Participants were instructed to apply the gel to the entire skin envelope of each breast each morning, after a shower. Duration of therapy was 6-10 weeks. Compliance was assessed through participant diaries, counts of returned pills and of returned gel canisters. Participants who took at least 80% of the prescribed dose were considered compliant.
(§2) Assessments similar to those performed at baseline were repeated on the day prior to, or on the morning of surgery. During surgery, breast adipose tissue from the surgical sample was snap frozen and stored at −80° C. for measurement of tamoxifen and metabolites. The samples were obtained from a location adjacent to the DCIS lesion to provide uniformity between participants undergoing breast conservation and mastectomy. The paraffin block of the core and excision samples were acquired by the recruiting institution and 10 sections from each specimen were submitted to the NU Pathology Core Facility. The sections were cut in batches (with pre- and post-treatment samples in the same batch), shipped cold, and processed for immunohistochemistry within four weeks.
(Z)-tamoxifen, (Z)-NDT, (E) and (Z)-4-OHT, and (Z)-endoxifen were measured by liquid chromatography-tandem mass spectrometry with a turbo ion spray interface operating in positive mode (API 3000; AB SCIEX, Foster City, Calif.). […] For analysis of NAF, samples were collected in a capillary tube and diluted with 200 μL of phosphate buffered saline; 100 μL of the diluted NAF sample was used for analysis. Breast adipose tissue samples, 25 mg, were minced and treated with 125 μL of […] and extracted as described above.
Retention times for (Z)-tamoxifen, (Z)-NDT, (Z)-4-OHT, (E)-4-OHT and (Z)-endoxifen were 7.3, 6.8, 5.1, 4.7 and 4.5 min, respectively. […] In three participants, matched samples were not available: breast adipose tissue was not collected in two, and the plasma sample was missing in one.
Since the fraction of E and Z isoforms of 4-OHT was of particular interest, we used an additional validated method to study plasma concentrations of these metabolites in a different laboratory (Eurofins Medinet, Chantilly, Va.): Plasma from blood samples collected in lithium-heparin tubes was frozen at −20° C., shipped in batches on dry ice to them Eurofins Medinet central laboratory; LC-MS/MS was used for the simultaneous determination of (E) 4-OHT and (Z) 4-OHT, with a lower limit of quantitation (LOQ) of 10 pg/mL and upper LOQ of 10,000 pg/mL. Eurofins Medinet developed and validated them method for BHR Pharma, in accordance with the FDA Guidance on Bioanalytical Method Validation.

maspin = assay: Maspin expression (H score) by immunohistochemistry, presurgical trial; conditions: mean ± SD
Experimental: as §2
Secondary endpoints were 1) to compare concentrations of tamoxifen and its metabolites [4-OHT, endoxifen, N-desmethyl tamoxifen (NDT)] in breast tissue, plasma and NAF obtained on the day of surgery; 2) to assess changes in known tamoxifenmodulated pathways in the breast (COX-2 and maspin protein expression, [19,20]) and plasma (SHBG, IGF-1 [14]). Side effect endpoints were 1) the incidence of hot flashes at baseline and before surgery; 2) changes in coagulation related proteins in women on the gel and the oral arms from baseline to immediately before surgery.
Immunohistochemical (IHC) assessment of these markers was performed on paraffin embedded sections of the core and excision specimens, using standard IHC techniques and MCF7, HCT116 and H292 cells as controls. For maspin we used primary mouse monoclonal antibody (Clone-G167-70,BD Pharmingen, San Jose, Calif.), dilution 1:200; for COX-2, primary mouse monoclonal antibody (Clone-CX-294, Dako, Denmark), dilution 1:100-; and for Ki67, primary mouse monoclonal antibody (Clone-MIB-1, Dako, Denmark), dilution 1:100-antigen. Dako Envision Plus system HRP labeled polymer for 20 min at 37° C. was used as the detection system. […] The Ki67 LI was assessed on an average of 300 DCIS cells at 40× magnification. […]

[2] = BESS quality of life questionnaire and CTCAE adverse events, presurgical trial
Description: as §1
The BESS Questionnaire was repeated at day 15 and at the end of treatment (1 day before surgery or day of surgery), and the post-surgical visit (approximately 7-14 days after surgery).
For continuous variables in the immunochemistry, drug concentration, and blood coagulation data, means and standard deviations are reported; the significance of changes between baseline and post-treatment within groups were evaluated with the paired t-test, and differences between treatment groups assessed using the unpaired t-test. For categorized demographic data, we examined the association of these variables with treatment group via Fisher's exact test. For the analysis of quality of life, the 33 symptoms in the BESS Questionnaire were divided into eight clusters as described by Cella et. al.. The mean score within each cluster was used to evaluate significance of changes from baseline to posttreatment within groups as well as the differences between treatment groups using the Wilcoxon signed-rank test.

[3] = at surgery after 6-10 weeks, mean ± SD, LLOQ 3 ng/g

## CC/C(=C(\c1ccccc1)c1ccc(OCCN(C)C)cc1)c1ccccc1 [Tamoxifen, (Z)-tamoxifen]
[1]; after 6-10 weeks, mean ± SD, LLOQ 1 ng/mL
  (E) 4-OHT concentration, plasma: BQL
[1]; after 6-10 weeks, mean ± SD, LLOQ 20 ng/mL
  (Z) Tamoxifen concentration, plasma: 90 ± 45 ng/mL
[1]; [3]
  (E) 4-OHT concentration, breast adipose tissue: BQL
  (Z) Tamoxifen concentration, breast adipose tissue: 2959 ± 1035 ng/g
[1]; participants A, B and one with undetectable NAF levels, listed as oral-T
  plasma concentration of tamoxifen, individual participants: 54 ng/mL and 94.3 ng/mL and 160 ng/mL
[1]; post-treatment nipple aspirate fluid
  NAF concentration of endoxifen: undetectable
[1]; post-treatment nipple aspirate fluid, participants A, B, listed as oral-T
  NAF concentration of tamoxifen, individual participants: 320 ng/mL and 182 ng/mL
[1]; post-treatment nipple aspirate fluid, participants C, D
  NAF concentration of 4-OHT ((Z) 4-OHT), individual participants: undetectable
maspin; DCIS lesions after 6-10 weeks
  Maspin post-treatment: 142 ± 69 H-score
maspin; DCIS lesions before treatment
  Maspin baseline: 107 ± 56 H-score
maspin; DCIS lesions, 6-10 weeks
  Maspin Changes from baseline: 35 ± 71 H-score
[2]; hot flashes, night sweats, cold sweats, mean score ± SD
  BESS Vasomotor symptom cluster, baseline: 0.33 ± 0.45
[2]; mean score ± SD
  BESS Bladder symptom cluster, Changes from baseline: 0.11 ± 0.49
  BESS Bladder symptom cluster, baseline: 0.14 ± 0.36
  BESS Bladder symptom cluster, post-treatment: 0.25 ± 0.33
  BESS Body Image symptom cluster, Changes from baseline: −0.04 ± 0.87
  BESS Body Image symptom cluster, baseline: 0.68 ± 0.77
  BESS Body Image symptom cluster, post-treatment: 0.64 ± 0.89
  BESS Body pain symptom cluster, Changes from baseline: 0.43 ± 0.92
  BESS Body pain symptom cluster, baseline: 0.76 ± 1.12
  BESS Body pain symptom cluster, post-treatment: 1.19 ± 1.11
  BESS Cognitive symptom cluster, Changes from baseline: 0.10 ± 0.86
  BESS Cognitive symptom cluster, baseline: 0.62 ± 0.61
  BESS Cognitive symptom cluster, post-treatment: 0.71 ± 1.18
  BESS Gastrointestinal symptom cluster, Changes from baseline: −0.10 ± 0.24
  BESS Gastrointestinal symptom cluster, baseline: 0.12 ± 0.31
  BESS Gastrointestinal symptom cluster, post-treatment: 0.02 ± 0.09
  BESS Sexual problems symptom cluster, Changes from baseline: −0.21 ± 0.54
  BESS Sexual problems symptom cluster, baseline: 0.32 ± 0.72
  BESS Sexual problems symptom cluster, post-treatment: 0.11 ± 0.40
  BESS Vaginal symptom cluster, Changes from baseline: 0.07 ± 0.19
  BESS Vaginal symptom cluster, baseline: 0.00 ± 0.00
  BESS Vaginal symptom cluster, post-treatment: 0.07 ± 0.19
  BESS Vasomotor symptom cluster, Changes from baseline: 0.55 ± 1.05
  BESS Vasomotor symptom cluster, post-treatment: 0.88 ± 1.26
[2]; mean score ± SD, listed as oral-T
  BESS Vaginal symptom cluster, baseline: 0.00
[2]; whole study
  serious adverse events (CTCAE): no serious adverse events
